Test results published in article PMC6713165, “Identification of 1H-pyrazolo[3,4-b]pyridine derivatives as potent ALK-L1196M inhibitors” (Journal of Enzyme Inhibition and Medicinal Chemistry, 2019).
Several values for one entry are separate records, joined by “and”; a condition that tells them apart may be missing. Identical values can stand only once. Like-named read-outs stand apart in the source and are kept apart here.

Columns and labels:
ALK-T1151-L1152insT = ALK-T1151-L1152insT (Homo sapiens, UniProt Q9UM73, INS1151T); assay: Radiometric biochemical kinase assay, ALK-T1151-L1152insT
Protocol: (§1) Biochemical kinase assay was performed by methods previously reported. Kinase reactions of all test compounds except 10g were carried out at 10 µM ATP. Kinase reaction of 10g was performed at three different concentrations of ATP (10/50/100 µM).

c-Src = c-Src (Homo sapiens, UniProt P12931); assay: Biochemical kinase assay, c-Src
Protocol: as §1

H2228 cells [1] = assay: Cell cycle arrest analysis (PI, FACS), H2228; assay type: cell-based; conditions: H2228, 1 µM, 24 h, in words
Protocol: After 24–48 h following compound treatment, cells were harvested and stained with annexin V (1:500 diluted in annexin V buffer) for 30 min and PI (1:200) solution for 30 min. 1 × 10^6 cells were analysed using flow cytometric analysis. For the cell cycle arrest analysis, cells were harvested by trypsinisation and fixed with 70% ethanol overnight at −20 °C. The next day, cells were harvested and washed with cold DPBS at 500 × g. The cells were suspended in RNase/PI solution (Cell Signalling Technologies, # 4087).

H2228 cells [2] = assay: Apoptosis analysis (annexin V-FITC/PI, FACS), H2228; assay type: cell-based; conditions: H2228, 48 h, in words
Protocol: (§2) After 24–48 h following compound treatment, cells were harvested and stained with annexin V (1:500 diluted in annexin V buffer) for 30 min and PI (1:200) solution for 30 min. 1 × 10^6 cells were analysed using flow cytometric analysis. For the cell cycle arrest analysis, cells were harvested by trypsinisation and fixed with 70% ethanol overnight at −20 °C. The next day, cells were harvested and washed with cold DPBS at 500 × g.

c-Met = c-Met (Homo sapiens, UniProt P08581); assay: Biochemical kinase assay, c-Met
Protocol: as §1

ALK-C1156Y = ALK-C1156Y (Homo sapiens, UniProt Q9UM73, C1156Y); assay: Radiometric biochemical kinase assay, ALK-C1156Y
Protocol: as §1

ROS1 = ROS1 (Homo sapiens, UniProt P08922); assay: Biochemical kinase assay, ROS1
Protocol: as §1

[3] = molecular target: IRK (insulin receptor kinase) (Homo sapiens, UniProt P06213); assay: Biochemical kinase assay, IRK
Protocol: as §1

ALK-L1196M = ALK-L1196M (Homo sapiens, UniProt Q9UM73, L1196M); assay: Radiometric biochemical kinase assay, ALK-L1196M; conditions: radiometric kinase assay, 10 µM ATP
Protocol: as §1

ALK-wt = ALK-wt (Homo sapiens, UniProt Q9UM73); assay: Radiometric biochemical kinase assay, ALK-wt
Protocol: as §1

[4] = test system: cleaved PARP and cleaved caspase-3 in ALK wt-TEL and ALK L1196M-TEL Ba/F3 cells; assay: Western blot of apoptosis markers; assay type: cell-based; conditions: 36 h, in words
Protocol: (§3) Cells were harvested and lysed using IP buffer containing 50 mM HEPES (pH 7.4), 1% Triton X-100, 2 mM EDTA, 150 mM NaCl, 2.5 mM NaF, 5 mM Na3VO4, protease inhibitor cocktail tablet (Roche, # 11–878-580–001). The protein concentration was determined by Bradford assay. Proteins were separated using SDS-PAGE and transferred onto NC membrane. The membranes were blocked using 5% skim milk in TBS-T buffer. The rabbit polyclonal antibody against phospho-ALK (Tyr1604, # 3341), phospho-ERK1/2 (Thr202/Tyr204, # 8544), phospho- PLC-gamma (Tyr783, # 14008), phospho-STAT3 (Tyr705, # 4074) and cleaved caspase3 (# 9661) were purchased from Cell Signalling Technologies, and PARP1/2 (H-250, # sc-7150) and anti-β-actin (# sc-47778) antibody was obtained from Santa Cruz Biotechnology. All primary antibodies were diluted in TBS-T at 1:1000. Each primary antibody was incubated overnight at 4 °C, followed by the secondary antibody treatment for 1 h at room temperature. Secondary antibodies were purchased from genDEPOT. Proteins were detected using ECL substrate, and then exposed to X-ray film.

[5] = test system: ALK autophosphorylation and STAT3, ERK, PLC-gamma phosphorylation in ALK wt-TEL Ba/F3, ALK L1196M-TEL Ba/F3 and H2228 cell lines; assay: Western blot of ALK autophosphorylation and downstream signalling; assay type: cell-based; conditions: in words
Protocol: as §3

ALK wt-TEL Ba/F3 cells = assay: Apoptosis analysis (annexin V-FITC/PI, FACS), ALK wt-TEL Ba/F3; assay type: cell-based; conditions: ALK wt-TEL Ba/F3, 24 h, in words
Protocol: as §2

[6] = Permeability assessment using Caco-2 cells; assay type: in vitro ADME, human; conditions: human
Protocol: (§4) Stock solutions (10 mM) of reference compounds and 10g were diluted to a concentration of 10 µM with the transport buffer (HBSS + 1%BSA) and the test compounds were applied to the apical or basolateral side of the cell monolayer. […] In addition, the efflux ratio of each compound was also determined. Reference compounds and 10g were quantified by LC-MS/MS analysis based on the peak area ratio of analyte/the internal standard.

Caco-2 cells = assay: Permeability assessment using Caco-2 cells; assay type: in vitro ADME, human
Protocol: as §4

[7] = test system: ALK L1196M-TEL Ba/F3 cells; assay: Apoptosis analysis (annexin V-FITC/PI, FACS), ALK L1196M-TEL Ba/F3; assay type: cell-based
Protocol: as §2

Chain of ALK-wt (Q9UM73 19-1620): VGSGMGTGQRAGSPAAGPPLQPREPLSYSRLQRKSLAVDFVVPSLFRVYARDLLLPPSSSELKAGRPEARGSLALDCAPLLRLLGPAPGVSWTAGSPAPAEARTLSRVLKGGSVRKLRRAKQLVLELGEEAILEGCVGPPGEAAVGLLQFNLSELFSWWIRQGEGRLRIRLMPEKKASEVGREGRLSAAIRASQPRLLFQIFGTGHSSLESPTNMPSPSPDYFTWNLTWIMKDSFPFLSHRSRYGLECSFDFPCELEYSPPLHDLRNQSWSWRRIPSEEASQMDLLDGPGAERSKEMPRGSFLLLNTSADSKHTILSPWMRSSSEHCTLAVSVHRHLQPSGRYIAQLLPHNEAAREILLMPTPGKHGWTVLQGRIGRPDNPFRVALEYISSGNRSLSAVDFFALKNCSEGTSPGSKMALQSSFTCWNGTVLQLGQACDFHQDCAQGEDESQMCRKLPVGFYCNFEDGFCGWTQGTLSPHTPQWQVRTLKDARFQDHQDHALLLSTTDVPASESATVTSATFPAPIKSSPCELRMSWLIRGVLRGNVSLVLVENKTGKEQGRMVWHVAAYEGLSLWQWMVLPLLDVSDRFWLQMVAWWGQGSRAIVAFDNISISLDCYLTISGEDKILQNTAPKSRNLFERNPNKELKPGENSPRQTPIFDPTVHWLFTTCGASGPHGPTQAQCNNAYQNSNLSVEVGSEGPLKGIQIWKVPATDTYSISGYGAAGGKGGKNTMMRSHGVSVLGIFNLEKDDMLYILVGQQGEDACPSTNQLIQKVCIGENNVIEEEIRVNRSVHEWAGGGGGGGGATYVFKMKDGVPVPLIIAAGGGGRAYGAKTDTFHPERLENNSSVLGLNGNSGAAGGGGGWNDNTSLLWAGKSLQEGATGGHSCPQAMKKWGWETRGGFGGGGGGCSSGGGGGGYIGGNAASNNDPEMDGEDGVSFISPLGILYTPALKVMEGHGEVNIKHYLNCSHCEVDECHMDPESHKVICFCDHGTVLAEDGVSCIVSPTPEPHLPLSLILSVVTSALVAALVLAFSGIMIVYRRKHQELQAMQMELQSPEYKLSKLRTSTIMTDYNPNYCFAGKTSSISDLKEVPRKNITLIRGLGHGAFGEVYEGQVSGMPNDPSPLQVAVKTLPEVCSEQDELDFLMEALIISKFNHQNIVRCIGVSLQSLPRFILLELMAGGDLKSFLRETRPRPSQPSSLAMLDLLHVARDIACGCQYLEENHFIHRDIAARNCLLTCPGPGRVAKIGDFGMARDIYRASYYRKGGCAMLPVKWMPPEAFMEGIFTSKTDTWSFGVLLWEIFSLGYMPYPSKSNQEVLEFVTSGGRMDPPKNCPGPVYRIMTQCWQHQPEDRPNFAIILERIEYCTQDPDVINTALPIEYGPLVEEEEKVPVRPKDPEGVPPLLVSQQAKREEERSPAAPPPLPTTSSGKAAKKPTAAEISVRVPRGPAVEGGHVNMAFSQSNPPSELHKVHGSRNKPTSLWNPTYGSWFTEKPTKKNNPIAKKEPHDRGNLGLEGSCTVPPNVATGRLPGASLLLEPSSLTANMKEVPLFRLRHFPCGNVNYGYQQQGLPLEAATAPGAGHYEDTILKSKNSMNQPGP
Chain of c-Met (P08581 25-1390): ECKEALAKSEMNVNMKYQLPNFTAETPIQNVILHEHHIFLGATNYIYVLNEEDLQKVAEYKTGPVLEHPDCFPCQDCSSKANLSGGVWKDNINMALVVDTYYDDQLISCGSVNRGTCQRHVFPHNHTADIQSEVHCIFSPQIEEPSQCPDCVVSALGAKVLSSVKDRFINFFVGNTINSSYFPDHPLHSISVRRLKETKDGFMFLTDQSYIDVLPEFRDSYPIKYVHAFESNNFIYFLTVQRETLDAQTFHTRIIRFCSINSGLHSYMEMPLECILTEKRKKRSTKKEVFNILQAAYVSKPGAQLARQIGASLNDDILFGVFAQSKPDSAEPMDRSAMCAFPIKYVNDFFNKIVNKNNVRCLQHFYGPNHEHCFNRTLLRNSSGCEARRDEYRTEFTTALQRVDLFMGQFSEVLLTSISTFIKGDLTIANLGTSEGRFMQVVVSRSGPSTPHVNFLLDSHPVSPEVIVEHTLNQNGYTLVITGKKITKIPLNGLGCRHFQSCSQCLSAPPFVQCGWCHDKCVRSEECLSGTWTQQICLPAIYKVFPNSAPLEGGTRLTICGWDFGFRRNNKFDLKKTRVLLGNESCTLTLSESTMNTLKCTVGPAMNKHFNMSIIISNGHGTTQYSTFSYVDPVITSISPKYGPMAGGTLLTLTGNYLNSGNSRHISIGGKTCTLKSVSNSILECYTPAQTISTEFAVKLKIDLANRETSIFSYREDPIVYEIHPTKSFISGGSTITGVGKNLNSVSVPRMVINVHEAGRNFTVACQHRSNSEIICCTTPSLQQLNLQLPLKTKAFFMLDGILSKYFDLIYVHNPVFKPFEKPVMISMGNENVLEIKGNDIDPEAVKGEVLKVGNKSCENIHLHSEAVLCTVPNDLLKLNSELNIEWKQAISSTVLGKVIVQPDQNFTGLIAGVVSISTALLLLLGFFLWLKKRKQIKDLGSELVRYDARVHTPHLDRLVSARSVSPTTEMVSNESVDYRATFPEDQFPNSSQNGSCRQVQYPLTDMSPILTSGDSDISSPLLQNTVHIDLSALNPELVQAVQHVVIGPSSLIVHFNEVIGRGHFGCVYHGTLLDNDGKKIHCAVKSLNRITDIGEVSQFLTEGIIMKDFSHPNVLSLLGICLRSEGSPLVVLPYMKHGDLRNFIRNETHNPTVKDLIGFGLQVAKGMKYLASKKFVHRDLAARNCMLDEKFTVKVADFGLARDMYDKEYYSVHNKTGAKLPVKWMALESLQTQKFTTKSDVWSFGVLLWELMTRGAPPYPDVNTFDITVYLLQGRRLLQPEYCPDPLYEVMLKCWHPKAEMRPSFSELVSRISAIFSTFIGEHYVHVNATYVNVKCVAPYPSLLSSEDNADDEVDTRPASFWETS
Chain of ALK-L1196M (Q9UM73 19-1620 L1196M): as the sequence (Q9UM73 19-1620) above, with L1178M counted along it
Chain of ALK-T1151-L1152insT (Q9UM73 with tags, fused parts or gaps INS1151T limits assumed): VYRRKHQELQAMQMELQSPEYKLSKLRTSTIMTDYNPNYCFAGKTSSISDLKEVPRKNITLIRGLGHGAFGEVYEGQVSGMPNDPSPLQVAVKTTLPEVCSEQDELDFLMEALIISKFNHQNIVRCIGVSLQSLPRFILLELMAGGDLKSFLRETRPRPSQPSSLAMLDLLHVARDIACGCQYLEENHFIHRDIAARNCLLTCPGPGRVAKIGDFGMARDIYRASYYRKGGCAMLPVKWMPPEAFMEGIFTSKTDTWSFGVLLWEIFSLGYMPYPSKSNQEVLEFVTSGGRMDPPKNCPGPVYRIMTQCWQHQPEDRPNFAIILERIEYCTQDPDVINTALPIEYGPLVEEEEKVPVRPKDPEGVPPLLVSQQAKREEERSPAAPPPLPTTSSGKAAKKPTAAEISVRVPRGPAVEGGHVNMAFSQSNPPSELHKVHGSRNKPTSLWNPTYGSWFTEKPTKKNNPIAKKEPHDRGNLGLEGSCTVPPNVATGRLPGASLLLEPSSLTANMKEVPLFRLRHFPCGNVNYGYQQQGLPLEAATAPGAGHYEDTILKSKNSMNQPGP
Chain of c-Src (P12931 whole entry): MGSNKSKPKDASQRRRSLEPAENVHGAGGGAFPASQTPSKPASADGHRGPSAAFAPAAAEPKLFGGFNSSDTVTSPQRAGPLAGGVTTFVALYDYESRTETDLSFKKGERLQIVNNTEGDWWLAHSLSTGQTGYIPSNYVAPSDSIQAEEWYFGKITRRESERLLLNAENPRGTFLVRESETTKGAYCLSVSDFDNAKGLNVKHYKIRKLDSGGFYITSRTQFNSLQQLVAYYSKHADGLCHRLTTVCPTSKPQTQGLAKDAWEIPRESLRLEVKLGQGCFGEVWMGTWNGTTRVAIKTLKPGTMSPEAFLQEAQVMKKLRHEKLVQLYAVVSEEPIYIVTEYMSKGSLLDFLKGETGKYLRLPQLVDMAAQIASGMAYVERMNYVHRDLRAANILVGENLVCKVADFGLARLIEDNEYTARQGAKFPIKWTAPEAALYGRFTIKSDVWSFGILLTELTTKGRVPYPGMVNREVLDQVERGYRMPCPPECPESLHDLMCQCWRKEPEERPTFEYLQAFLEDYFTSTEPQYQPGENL
Chain of ALK-C1156Y (Q9UM73 19-1620 C1156Y): as the sequence (Q9UM73 19-1620) above, with C1138Y counted along it

CN1CCN(c2ccc(C(=O)Nc3n[nH]c4ncc(S(=O)(=O)c5cccc(F)c5)cc34)cc2)CC1 [10g, N-(5-((3-Fluorophenyl)sulfonyl)-1H-pyrazolo[3,4-b]pyridin-3-yl)-4–(4-methylpiperazin-1-yl)benzamide]
IC50 (ALK-T1151-L1152insT): 6.19 nM | IC50 (c-Src): 7 nM | cell cycle arrest (H2228 cells [1]): significant enhancement of G1-S arrest | apoptosis induction (FACS) (H2228 cells [2]): induces apoptosis in H2228 cells in a dose dependent fashion | selectivity, more potent against ALK-wt than c-Met (c-Met; ALK-wt vs c-Met IC50): over 7000 fold | IC50 (c-Met; biochemical kinase assay): 3780 nM | IC50 (ALK-C1156Y): 1.81 nM | IC50 (ROS1): < 1 nM | IC50 [3]: 404 nM | IC50 (ALK-L1196M): < 0.5 nM | change in IC50 against ALK-wt on 10-fold increase in ATP concentration (ALK-wt; 10 vs 100 µM ATP): 50 fold | IC50 (ALK-wt; IC50 ALK-wt [ATP](50 μM), 50 μM ATP): 17.3 nM | IC50 (ALK-wt; IC50 ALK-wt [ATP](100 μM), 100 μM ATP): 24 nM and 24.9 nM | IC50 (ALK-wt; radiometric kinase assay, 10 µM ATP, read-out: IC50 ALK-wt): < 0.5 nM | levels of cleaved PARP and cleaved caspase-3 (western blot) [4]: increases in the levels of cleaved PARP and cleaved caspase-3 | ALK autophosphorylation (western blot) ([5]; 1 and 10 µM, 2 h, ALK wt-TEL Ba/F3, ALK L1196M-TEL Ba/F3 and H2228 cell lines): effectively attenuates | phosphorylation levels of STAT3, ERK and PLC-gamma (western blot) ([5]; 2 h, dose-dependent): moderately suppressed | inhibition of ALK autophosphorylation compared with crizotinib ([5]; ALK L1196M-TEL Ba/F3 cells): more effective than crizotinib | number of apoptotic cells (FACS) (ALK wt-TEL Ba/F3 cells): increases the number of apoptotic cells in a dose-dependent manner | Papp A→B at 120 min, 10 µM ([6]; Caco-2, Caco-2, 10 µM, 120 min, 37 °C, HBSS + 1%BSA, read-out: Mean Papp A to B): 2.56 ×10⁻⁶ cm/s | recovery at 120 min, 10 µM ([6]; Caco-2, Caco-2, 10 µM, 120 min, read-out: Mean recovery % A to B): 74.2% | recovery at 120 min, 10 µM ([6]; Caco-2, Caco-2, 10 µM, 120 min, read-out: Mean recovery % B to A): 92.3% | Papp A→B at 120 min, 10 µM ([6]; Caco-2, Caco-2 permeability class from Papp (A to B), read-out: Rank Papp): 2.5 to 10 ×10⁻⁶ cm/s | efflux ratio at 120 min, 10 µM ([6]; Caco-2, 10 µM, 120 min): 1.85 | Papp B→A at 120 min, 10 µM ([6]; Caco-2, 10 µM, 120 min, 37 °C, HBSS + 1%BSA): 4.74 ×10⁻⁶ cm/s | Rank Papp (Caco-2 cells; Caco-2 permeability class from Papp (A to B)): moderate | Rank P-gp (Caco-2 cells; P-gp substrate status from efflux ratio): not a substrate | number of apoptotic cells (FACS) ([7]; ALK L1196M-TEL Ba/F3, 24 h, in words): increases the number of apoptotic cells in a dose-dependent manner | apoptosis induction compared with crizotinib ([7]; ALK L1196M-TEL Ba/F3, in words): more effectively than does crizotinib
